How the values were obtained:
[1] = tested on: MPTP-induced PD mouse model; test: MPTP mouse model: TH (DAB) and Nissl staining of SNpc and striatum; conditions: MPTP mice; for TH optical density in the striatum / TH-positive cell number in the SNpc: vs MPTP plus vehicle
Experimental: (§5) Group allocation and outcome assessment, but not the conduct of experiments and data analysis, were performed in a blinded manner. Throughout the study, confounders were not controlled. An acclimation period of 7 days was allowed for animals to stabilize in a new environment before model induction. […] Treatment drugs were dissolved in 100 μL of water and total dose (in mg) was calculated according to individual body weight (in kg). […] An experiment was halted if body weight decreased by 20% or more after MPTP or 6-hydroxydopamine (6-OHDA) treatment.
The MPTP model was established using the acute regimen of four intraperitoneal (i.p.) injections of MPTP-HCl (M0896, Sigma Aldrich, 2 mg/mL in saline, 20 mg/kg for one injection) at 2-h intervals. All MPTP use and safety precautions were strictly followed as described [18].
Coronal sections for striatum and SNpc were prepared at 30-μm thickness and immunostained using a DAB staining kit (TL-060-QHD, Thermo, MA, USA). […] After washing in PBS 3 times, sections were incubated in Primary Antibody Amplifier Quanto (TA-060-QPB, Thermo) for 5 min, washed again in PBS, incubated in HRP Polymer Quanto for 1 h, washed 4 times in PBS, and dipped for 30 s in a 1:10 mixture of DAB + chromogen and DAB + substrate buffer (K3468, Dako, Denmark). Finally, sections were washed, immersed in mounting medium, and dried.
Every 6th section including the SN was stained with anti-TH and the number of TH-positive neurons counted under low magnification (× 10) from the rostral tip of the SNpc to the caudal end of the substantia nigra pars reticulate (SNpr). […] The total number of neurons per section was estimated according to the optical fractionator formula. The total number of SNpc neurons in a hemisphere was then obtained by multiplying the number counted using Stereo Investigator 11 by the slice interval (six).
Other 30-μm-thick coronal sections from the SNpc were Nissl stained to assess viable cell number. Briefly, slices were stained with 0.1% cresyl violet solution for 3 min, rinsed with distilled water, and placed in a chamber filled with 70% ethanol for 1 min. […] A series of bright field images were obtained using an Olympus microscope. The slices were classified according to AP coordinates and Nissl-positive neurons counted using the counting tool of ImageJ (NIH, MD, USA).

[2] = Oral toxicity studies in cynomolgus monkeys (N217019, G217013, G218027); assay type: in vivo, cynomolgus monkey (Macaca fascicularis); conditions: cynomolgus monkey, in vivo; cynomolgus monkeys, both sexes, 4-week repeated oral dosing; read-out: No Observed Adverse Effect Level (NOAEL)
Experimental: (§1) All non-human primate studies were conducted in the Good Laboratory Practice (GLP)-level laboratory of the Korea Institute of Toxicology (KIT, Jeollabuk-do, Korea) and approved by the KIT Institutional Animal Care and Use Committee. Cynomolgus monkeys (Macaca fascicularis) were obtained from the Nafovanny captive-breeding primate facility (Dong Nai Province, Vietnam) and housed individually in stainless cages (543 W × 715L × 818H in mm) during acclimation, pre-treatment, and dosing periods. All animals were at least 24 months old. The environment of the animal room was automatically controlled according to the Standard Operating Procedures of KIT (temperature: 20–29°C, relative humidity: 30–70%, light cycle: 12 h at 300–700 Lux, ventilation: 10–20 times/h, air pressure: negative). Males and females were assigned to treatment groups in a stratified manner using the Pristima System based on most recent body weight. Clinical signs, including mortality, moribundity, general appearance, and behavioral changes, were recorded with date, time, and duration. Body weight was measured prior to the first KDS2010 dose. For oral administration, KDS2010 was dissolved in water. In total, 42 monkeys were administered KDS2010 and ultimately sacrificed for autopsy. The four studies conducted on cynomolgus monkeys are summarized in Table 1 and described in greater detail below.
(§2) In the single-dose escalation study (N118029), each male and female monkey was administered oral KDS2010 at increasing doses of 25, 50, and 100 mg/kg/day once a week. Mortality and general symptoms were observed during the trial period. Body weight was also measured. Blood was collected for hematology, coagulation, and clinical chemistry tests pre-dose (0) and 8, 15, and 22 days post-dose. After administration of 100 mg/kg/day on day 22, an autopsy was performed to observe individual macroscopic findings.
(§3) In the repeated 2-week oral administration toxicity study (G217013) for 4-week dose range finding (DRF), monkeys were assigned to 4 groups of one male and one female. Each group was orally administered KDS2010 at 0, 25, 50, or 100 mg/kg/day once a day for 2 weeks. During the test period, general symptoms were monitored, weight and feed intake measured, and ophthalmological tests performed. Clinical pathological tests (hematology, coagulation, blood biochemistry, and urine tests) were also conducted. All animals were autopsied, during which individual macroscopic findings were recorded, organ weights measured, and samples obtained for histopathology.
(§4) In the repeated 4-week oral administration toxicity with 2-week recovery and toxicokinetic test (G218027), monkeys were assigned to 4 groups of 3 males and 3 females. Each group was orally administered KDS2010 at 0, 10, 20, or 40 mg/kg/day once a day for 4 weeks. Toxicity tests were conducted as described for study G217013. For toxicokinetic measurements, blood samples were collected pre-dose (time 0) and at 1, 2, 4, 6, 8, 10, and 24 h after oral administration on the first day (day 1) and the last day (week 4; day 28) of dosing.

[3] = tested on: cynomolgus monkeys; test: as above; assay type: in vivo, cynomolgus monkey (Macaca fascicularis)
Experimental: as §1, §2, §3, §4

[4] = Pharmacokinetic study in cynomolgus monkeys (N118029); assay type: in vivo, cynomolgus monkey (Macaca fascicularis); conditions: male, cynomolgus monkey, plasma, po
Experimental: All animals were at least 24 months old. […] Males and females were assigned to treatment groups in a stratified manner using the Pristima System based on most recent body weight. Clinical signs, including mortality, moribundity, general appearance, and behavioral changes, were recorded with date, time, and duration. Body weight was measured prior to the first KDS2010 dose. For oral administration, KDS2010 was dissolved in water. In total, 42 monkeys were administered KDS2010 and ultimately sacrificed for autopsy.
In the pharmacokinetic study (N118029), six male monkeys were assigned to 2 groups receiving either 10 or 30 mg/kg oral KDS2010. […] Blood samples were mixed gently, stored in a wet-ice cryo-rack, and centrifuged (approximately 13,200 rpm, 5 min, 4°C) to obtain plasma. The separated plasma was aliquoted into polypropylene tubes and stored frozen until analysis.
A non-compartmental analysis module in Phoenix® WinNonlin® (version 6.4) (Certara Inc., CA, USA) was used to calculate pharmacokinetic (PK) parameters. Systemic exposure to KDS2010 was calculated by applying the linear trapezoidal rule to the area under the plasma concentration–time curve from time zero to the last quantifiable time point (AUClast), and the maximum observed peak plasma concentration (Cmax) and the time to reach Cmax (Tmax) were determined based on the observed data.

[5] = tested on: 6-OHDA model rats; test: 6-OHDA rat model: stepping test, rotarod test, TH; conditions: 6-OHDA rats
Experimental: as §5
Finally, the 6-OHDA model was prepared as previously described [21]. Under general anesthesia, all rats received unilateral injections of 8 μg 6-OHDA (Sigma Aldrich) in 4 μL saline/0.1% ascorbic acid into the right medial forebrain bundle (AP − 2.2 mm and L + 1.5 mm relative to the bregma, V − 8.0 mm from the dura) [19], with the tooth bar set at + 4.5 mm.
Motor deficits of 6-OHDA and A53T mutant α-synuclein model rats were assessed as previously described with slight modifications [27]. Briefly, both hind limbs and one forelimb were firmly fixed in the two hands of the experimenter, and the rat was lowered over a treadmill moving at rate of 18 cm/s such that the body remained stationary while the free forelimb was allowed to spontaneously touch the moving treadmill track for 10 s. All experimental sessions were video recorded to count the number of adjusting steps taken in the backward direction. The number of adjusting steps was averaged across four trials in each session.
In addition, impaired motor coordination of 6-OHDA model rats was examined using the rotarod test as previously described with slight modifications [28]. […] Before the first rotarod test, all rats were pre-trained until riding time reached 60 s at 10 rpm (B.S Technolab, Seoul, Korea). Each session consisted of two trials, and riding time was averaged to obtain pre-6-OHDA, 0d, 7d, and 15d results.

[6] = tested on: APP/PS1 transgenic mouse model of AD; design: method as in PMID 30906861; conditions: APP/PS1 mice; short-term (3 days) or long-term (30 days) treatment; cited from earlier work
[7] = target: T1, human recombinant MAO-B (hMAO-B) (Homo sapiens, UniProt P27338); test: In vitro MAO-B enzyme assay (H2O2 release, absorbance 570 nm); assay type: biochemical
T1 construct: purchased Sigma Aldrich
T1 sequence (P27338 1-520): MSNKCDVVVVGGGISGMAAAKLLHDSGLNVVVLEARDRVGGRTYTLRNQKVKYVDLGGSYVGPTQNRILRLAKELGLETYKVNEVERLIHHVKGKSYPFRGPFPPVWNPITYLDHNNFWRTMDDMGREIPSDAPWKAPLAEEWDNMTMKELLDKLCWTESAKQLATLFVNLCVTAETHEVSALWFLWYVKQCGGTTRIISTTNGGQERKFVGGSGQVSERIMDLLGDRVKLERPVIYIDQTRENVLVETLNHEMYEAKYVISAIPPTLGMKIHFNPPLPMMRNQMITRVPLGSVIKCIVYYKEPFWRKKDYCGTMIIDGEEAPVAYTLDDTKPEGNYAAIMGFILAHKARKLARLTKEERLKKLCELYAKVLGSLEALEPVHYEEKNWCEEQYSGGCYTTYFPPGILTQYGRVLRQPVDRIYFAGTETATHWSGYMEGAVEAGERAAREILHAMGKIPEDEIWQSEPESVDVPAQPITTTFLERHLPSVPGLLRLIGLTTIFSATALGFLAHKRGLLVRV
Experimental: In brief, human recombinant MAO-A (hMAO-A) and MAO-B (hMAO-B) (Sigma Aldrich) were diluted in 50 mM phosphate buffer (~ 0.3 μg MAO-A protein/well or ~ 2.5 μg MAO-B protein/well), and the test compound was added in DMSO to a final concentration from 0.1 nM to 10 μM. The amount of hydrogen peroxide (H2O2) released after addition of enzyme substrate (p-tyramine for MAO-A or benzylamine for MAO-B) was quantified by measuring the absorbance increase at 570 nm on a microplate reader.

[8] = tested on: MPTP-induced PD mouse model; test: MPTP mouse model: vertical grid test and coat hanger test; assay type: in vivo; conditions: MPTP mice
Experimental: Group allocation and outcome assessment, but not the conduct of experiments and data analysis, were performed in a blinded manner. Throughout the study, confounders were not controlled. An acclimation period of 7 days was allowed for animals to stabilize in a new environment before model induction. […] Treatment drugs were dissolved in 100 μL of water and total dose (in mg) was calculated according to individual body weight (in kg).
The MPTP model was established using the acute regimen of four intraperitoneal (i.p.) injections of MPTP-HCl (M0896, Sigma Aldrich, 2 mg/mL in saline, 20 mg/kg for one injection) at 2-h intervals.
Motor deficits of the MPTP-induced PD mouse model were assessed using the vertical grid test as described in the previous study [23]. Briefly, after 2 days of habituation to the testing apparatus, individual mice were gently placed 3 cm from the top, facing upward, and allowed to turn around and climb down. We also performed a coat hanger test as described [24–26]. Briefly, a mouse was gently hung on the middle of a coat hanger and allowed to ascend to the top. Performance was graded as follows: 0, falling off the hanger within 20 s; 1, moving to the side-bar of the hanger; 2, reaching the side-bar of the hanger; 3, climbing the side-bar of the hanger; 4, moving to the top of the hanger; 5, climbing and reaching the safe zone. The test was performed twice and each trial lasted a maximum of 3 min.

[9] = long-term (30-day) treatment, 10 mg/kg/day oral
[10] = post-treatment, administered 3 days after MPTP
[11] = pre-treatment, 10 mg/kg/day oral, 3 days starting 1 day before MPTP

SMILES: C[C@H](NCc1ccc(-c2ccc(C(F)(F)F)cc2)cc1)C(N)=O [Compound 18j]
- MPTP-induced reduction in Nissl-positive neurons in SNpc ([1]; post-treatment): but not post-treatment
- TH optical density in the striatum ([1]; post-treatment): significantly increased
- TH-positive cell number in the SNpc ([1]; post-treatment): significantly increased
- MPTP-induced reduction in Nissl-positive neurons in SNpc ([1]; pre-treatment): partially prevented
- TH optical density in the striatum ([1]; pre-treatment): significantly increased
- TH-positive cell number in the SNpc ([1]; pre-treatment): significantly increased
- NOAEL at 4 weeks [2]: 40 mg/kg/day
- maximum dose determined in 2-week DRF study (G217013) ([3]; cynomolgus monkeys, 0, 25, 50, 100 mg/kg/day p.o. for 2 weeks): 50 mg/kg/day
- adverse effects in toxicity examinations ([3]; cynomolgus monkeys, 10, 20, 40 mg/kg/day p.o. for 4 weeks): no adverse effects were observed
- findings in single-dose escalation toxicity study (N217019) ([3]; cynomolgus monkeys, 25, 50 and 100 mg/kg p.o.): no general symptoms, clinical pathological, or gross organ pathology
- changes in body weight ([3]; cynomolgus monkeys, male and female, 10, 20, 40 mg/kg/day p.o. for 4 weeks): no significant changes
- AUC ([4]; 10 mg/kg): 30600 ± 422 ng·h/mL
- Cmax ([4]; 10 mg/kg): 2230 ± 143 ng/mL
- AUC ([4]; 30 mg/kg): 80800 ± 5370 ng·h/mL
- Cmax ([4]; 30 mg/kg): 4850 ± 568 ng/mL
- stepping test: stepping behavior deficit of the contralateral forepaw ([5]; 10 mg/kg/day for 15 days starting 17 days post-6-OHDA): partially but significantly improved
- rotarod test: reduction in riding time (latency to fall) ([5]; 15 days' treatment starting 17 days after 6-OHDA): partially reversed
- nigrostriatal TH loss ([5]; data not shown): not reversed
- memory impairment [6]: effectively ameliorated
- higher MAO-B inhibitory effect of (S)-stereoisomer than (R)-isomer (19j) [7]: eightfold
- vertical grid test: time to turn [8, 9]: reduced
- vertical grid test: total time [8, 9]: reduced
- coat hanger test: motor score [8, 10]: increased
- vertical grid test: rate of missed steps [8, 10]: significantly reduced
- vertical grid test: time to turn [8, 10]: significantly reduced
- vertical grid test: total time [8, 10]: significantly reduced
- vertical grid test: rate of missed steps [8, 11]: significantly reduced
- vertical grid test: time to turn [8, 11]: significantly reduced
- vertical grid test: total time [8, 11]: significantly reduced
- coat hanger test: motor function score ([8]; pre-treatment, 10 mg/kg/day oral, vehicle-treated controls 1.8 ± 0.4, score 0-5): 3.6 ± 0.5
